Reference: patent publication US7892767B2, “Phosphospecific chemokine receptor antibodies” (Washington University in St. Louis, priority 2005, dated 2011)

Tests used:
Nf1−/− astrocytes [1] = assay: Cell number by trypan blue exclusion, Nf1−/− astrocytes; assay type: cell-based, mouse; conditions: CXCL12 0.1 ug/ml (≈10 nM), 24 hours, vs untreated controls
Method: Culture and treatment of primary astrocytes. Primary cultures of astrocytes were prepared from post-natal day two Nf1^flox/flox mice as previously described (134) and in accordance with established Animal Studies Protocols at Washington University School of Medicine. Cultures were infected with adenovirus containing either Cre recombinase (Nf1−/−) or LacZ (Nf1+/+). Primary cultures of astrocytes were grown under standard adherent conditions in serum free media (DMEM/F12 or Neurobasal (Gibco-BRL)) in the presence or absence of 0.1 μg/ml CXCL12 (Peprotech) and 10 μM Forskolin for 24 hours, as indicated. Cell number was determined after 24 hours by trypan blue exclusion and the growth effects of CXCL12 were derived as follows: ((cell number in the presence of CXCL12—cell number cell in the absence of CXCL12)/cell number in the absence of CXCL12)×100.)
To determine the biological significance of CXCR4 activation to NF1 glioma biology, we next sought to evaluate the regulation of CXCL12 growth effects by neurofibromin in astrocytes. While the true cell of origin of astrocytomas remains unknown, we utilized primary cultures of cortical astrocytes as a model of a normal counterpart to astrocytoma cells. Astrocytes were derived from Nf1^flox/flox mice and rendered Nf1+/+ or Nf1−/− by infection with adenovirus encoding LacZ or Cre recombinase, respectively.

Nf1−/− astrocytes [2] = assay: Intracellular cAMP by ELISA, Nf1−/− astrocytes; assay type: cell-based, mouse
Method: (§1) cAMP measurements. cAMP was measured by ELISA (Cayman Chemical Company, Ann Arbor, Mich. or Assay Designs, Ann Arbor, Mich.). Briefly, astrocyte cultures were lysed in 0.1 N HCl. After the removal of cellular debris, soluble cellular extract was dried down and resuspended in EIA buffer. Experimental samples and cAMP standard curve were acetylated to increase the sensitivity of the assay and incubated with cAMP ACHe tracer and cAMP EIA anti-serum overnight at 4° C. according to the manufacturer's instructions. After extensive washing, bound antibody was measured by spectrophotometric analysis. Concentrations of cAMP were derived from comparison with standard curve according to manufacturer's instructions.
(§2) We evaluated the time dependent changes in intracellular cAMP in Nf1+/+ and Nf1−/− astrocytes after exposure to 0.1 μg/ml CXCL12. […] However, in Nf1+/+ astrocytes, intracellular levels of cAMP rapidly recovered to baseline and oscillated between baseline and 40% of baseline over the 45-minute experimental period (FIG. 10B).
(§3) We hypothesized that if cooperative signaling between Nf1 loss and CXCR4 activation promotes tumor formation through the suppression of cAMP, then agents that alter intracellular cAMP should modulate CXCL12 responses. We treated astrocytes with the adenylyl cyclase (AC) activator forskolin in the presence and absence of CXCL12. […] In these experiments, forskolin elevated intracellular cAMP levels in both Nf1+/+ and Nf1−/− astrocytes with peak values of 17.8+/−0.4 and 19.4+/−4.5 pmol/mg of protein, respectively, after 24 hours of treatment. The effect of forskolin was not abrogated by co-treatment with CXCL12. Under these conditions, cAMP levels were 17.9+/−2.5 and 10.4+/−5.8 pmol/mg of total protein in Nf1+/+ and Nf1−/− astrocytes, respectively. […] The effect of forskolin on CXCL12-mediated Nf1−/− apoptosis was evidenced by changes in the percentage of Nf1−/− astrocytes in the sub-G0 fraction of the cell cycle (FIG. 11B). Thus while astrocyte growth is dependent upon MEK and PI3 kinase activity, CXCL12-induced Nf1−/− astrocyte growth requires the suppression of intracellular cAMP levels.

Nf1+/+ astrocytes = assay: Intracellular cAMP by ELISA, Nf1+/+ astrocytes; assay type: cell-based, mouse; conditions: 0.1 μg/ml CXCL12, 45-minute period
Method: as §1, §2, §3

U87 glioblastoma cells = assay: Intracellular cAMP by ELISA, U87 glioblastoma cells; assay type: cell-based, human; conditions: 1 μg/ml CXCL12
Method: (§4) Growth factor and drug treatment. Following serum-starvation for 24 hours, astrocytes, granule cells, U87 cells and Daoy cells, were treated with 1 μg/ml CXCL12 (PeproTech), […] AMD3465 (kind gift from Simon Fricker, AnorMED, Langley, BC, Canada) (200 μM Rolipram (Sigma), or 10 μM Forskolin (Sigma) as indicated.
cAMP measurement in cell culture. cAMP concentration was measured using a Correlated-EIA™. Enzyme Immunoassay Kit (Assay Designs Inc. MI) according to the manufacturer's instructions. Briefly, U87 or Daoy cells were serum-starved for 24 hours, and treated with CXCL12 (1 μg/ml), Rolipram (200 μM), or forskolin (10 μM). Cells were lysed in 0.1M HCL and particulate matter was removed by centrifugation at >600×g for 10 min. The supernatants were dried down and resuspended in assay buffer.
(§5) Determination of cAMP concentration. Competitive immunoassay for cAMP concentration was performed exactly as directed by the manufacturer. Absorbance at 405 nm was measured and cAMP concentrations were determined by calculation based on a standard curve. Protein concentrations were measured by colormetric assay (Bio-Rad, Hercules, Calif.) according to the manufacturer's directions. cAMP values were normalized to protein for each sample individually.

cortical astrocytes = assay: Intracellular cAMP by ELISA, primary cortical astrocytes; assay type: cell-based, mouse; conditions: 1 μg/ml CXCL12
Method: (§6) Primary astrocyte cultures. Primary astrocytes were cultured from 1 to 3-day-old BALB/C mice as described (57). The cortices were triturated into single cells in minimal essential medium (Invitrogen) containing 10% FCS, and then plated onto 75 cm^2 T-flasks (0.5 hemisphere/flask) for 10-14 days. Astrocytes were prepared by vigorous shaking of T-flasks overnight, removal of non-adherent cells, and isolation of the remaining adherent cells, with 0.1% trypsin.
as §4, §5

astrocytes = assay: Cell number by trypan blue exclusion, primary astrocytes; assay type: cell-based, mouse; conditions: CXCL12 1 μg/ml, 24 hours
Method: as §6, §4

## CXCL12: chemokine ligand of CXCR4 (Peprotech)
Nf1−/− astrocytes [1]
  increase in cell number: ~14+/−2%
Nf1−/− astrocytes [2]; 0.1 μg/ml CXCL12, 45-minute period
  integrated area under the cAMP curve: 1.96
Nf1−/− astrocytes [2]; 0.1 μg/ml CXCL12, from areas under the curves
  intracellular cAMP in Nf1−/− astrocytes relative to Nf1+/+ astrocytes: approximately 73%
Nf1+/+ astrocytes
  integrated area under the cAMP curve: 2.70
  intracellular cAMP, lower level of oscillation: 40 % of baseline
U87 glioblastoma cells
  cyclic AMP levels after CXCL12: rapidly declined
  reduction in intracellular cAMP as compared to astrocytes (area under the curve): 45%
Cortical astrocytes
  cAMP, lower level of fluctuation: 40 % of baseline
astrocytes
  effect on cell number: tended to decrease
